Experiment [1] concerns the target T1, MLLT1 (Homo sapiens, UniProt Q03111).
T1 sequence (Q03111 1-559): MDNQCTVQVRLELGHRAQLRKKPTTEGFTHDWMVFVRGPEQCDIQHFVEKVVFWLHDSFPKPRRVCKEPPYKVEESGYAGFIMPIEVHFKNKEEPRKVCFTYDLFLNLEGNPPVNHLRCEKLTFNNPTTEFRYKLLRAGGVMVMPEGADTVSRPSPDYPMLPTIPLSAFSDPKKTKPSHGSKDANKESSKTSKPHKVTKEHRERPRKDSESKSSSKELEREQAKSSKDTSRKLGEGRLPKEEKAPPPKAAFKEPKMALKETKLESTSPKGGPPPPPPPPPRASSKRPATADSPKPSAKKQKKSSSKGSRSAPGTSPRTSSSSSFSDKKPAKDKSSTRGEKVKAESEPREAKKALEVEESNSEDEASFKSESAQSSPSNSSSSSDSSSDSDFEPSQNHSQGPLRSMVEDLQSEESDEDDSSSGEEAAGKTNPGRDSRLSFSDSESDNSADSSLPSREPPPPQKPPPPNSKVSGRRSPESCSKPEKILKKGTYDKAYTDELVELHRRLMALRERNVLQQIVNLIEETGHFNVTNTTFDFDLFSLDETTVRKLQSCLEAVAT
Description: MLLT1 HTRF IC50 determination assay (H3K9cro peptide displacement). It is filed as binding. As to conditions: category, Table 4. An excerpt: (§1) This procedure is intended to measure the interaction between YEATS proteins and histone peptides modified by an appropriate epigenetic mark and can be used to assay compounds which bind to the YEATS proteins and inhibit this interaction. The assay uses 6His tagged MLLT1 or MLLT3 with an anti-6His antibody conjugated with Eu^3+ chelate (donor) and a biotinylated peptide with Streptavidin conjugated XL-665 (acceptor). When the donor and acceptor labels are in close proximity, by binding of the peptide by MLLT1 or MLLT3, the excitation of the donor (337 nm) triggers a Fluorescence Resonance Energy Transfer (FRET) to the acceptor which then fluoresces at specific wavelength (665 nm).
(§2) This step optimises the protein/peptide ratio that will be used in HTRF screening assay in order to allow the best signal-to-noise ratio. Each new purified protein should be titrate this way as the signal-to-noise ratio may differ from different protein batches. Displacement assay for MLLT1 and MLLT3 was performed by using H3K9 cro peptide (ARTKQTAR(Kcrot)STGGKAPRKQLYK(biotin)).
(§3) A serial dilution of 4× solution of biotinylated peptide was prepared in assay buffer (25 mM HEPES, 20 mM NaCl, 0.05% BSA, 0.05% Tween-20, pH 7.0) covering concentrations from 3.2 μM to 0.2 nM. and 5 μL of each dilution were transferred horizontally to fill 15 columns of a white ProxiPlate-384 Plus shallow well Microplate (Perkin Elmer, USA). A sixteenth column of buffer was also included for a background reference. In parallel, a serial dilution of the 6His-tag protein of interest was prepared in the same way and 5 μL of each dilution were vertically added to the wells containing the peptide dilutions. Buffer has been transferred to the last line of the plate in order to make a no-protein reference. The microplate has been covered and incubated 1 hour at room temperature. A 2× detection mix was prepared in assay buffer by diluting streptavidin conjugated with XL-665 (610SAXLB, Cisbio Bioassays, France) to 1/2000 and anti-6His(Eu) chelate (LANCE Eu-W1024 Anti-6×His, ADO111, Perkinelmer LAS (UK)LTD) to 1/20000, 10 μL were added to each well and the plate has been incubated for 1 to 24 hours at room temperature in the dark. The plate was read in the Pherastar using the HTRF module with dual emission protocol (A=ex. 320 nm em. 665 nm, B=ex. 320 nm em. 620 nm).
(§4) The HTRF ratio was calculated as channel A/B*10000 and the specific signal as follow: specific signal=HTRF Ratio Positive signal—HTRF Ratio Negative signal (without protein). The concentrations of protein and peptide that allow the maximum specific signal without saturation were selected to perform HRTF screening assay described below.
(§5) The compounds were dissolved in DMSO at a stock concentration of 10 mM and dispensed into microplate using the Echo acoustic liquid handler (Labcyte, Beckman Coulter, USA). The assay covers a window of compound concentrations from 20 μM to 20 nM spread in 11 data points in duplicate. Solvent and compound controls were added to each plate in order to calculate the background signal.
(§6) Ten microliters of 2× mix of 6His-protein and biotinylated peptide, the concentrations were determined above, were added to the dispensed compounds and incubated for one hour at room temperature in the dark. Ten microliters of the 2× detection mix was added to each well and the plate was incubated for another hour at room temperature in the dark and the plate was read in order to calculate the HTRF specific signal. The % inhibition values as follows:
(§7) The IC50 values were determined by plotting % inhibition vs compound concentration and fitting the data to a non-linear sigmoidal dose response equation (4 parameter fit): […]
(Time-resolved FRET reads energy transfer from a long-lived donor to a nearby acceptor.)

The next experiment concerns the target T2, MLLT3 (Homo sapiens, UniProt P42568).
T2 sequence (P42568 1-568): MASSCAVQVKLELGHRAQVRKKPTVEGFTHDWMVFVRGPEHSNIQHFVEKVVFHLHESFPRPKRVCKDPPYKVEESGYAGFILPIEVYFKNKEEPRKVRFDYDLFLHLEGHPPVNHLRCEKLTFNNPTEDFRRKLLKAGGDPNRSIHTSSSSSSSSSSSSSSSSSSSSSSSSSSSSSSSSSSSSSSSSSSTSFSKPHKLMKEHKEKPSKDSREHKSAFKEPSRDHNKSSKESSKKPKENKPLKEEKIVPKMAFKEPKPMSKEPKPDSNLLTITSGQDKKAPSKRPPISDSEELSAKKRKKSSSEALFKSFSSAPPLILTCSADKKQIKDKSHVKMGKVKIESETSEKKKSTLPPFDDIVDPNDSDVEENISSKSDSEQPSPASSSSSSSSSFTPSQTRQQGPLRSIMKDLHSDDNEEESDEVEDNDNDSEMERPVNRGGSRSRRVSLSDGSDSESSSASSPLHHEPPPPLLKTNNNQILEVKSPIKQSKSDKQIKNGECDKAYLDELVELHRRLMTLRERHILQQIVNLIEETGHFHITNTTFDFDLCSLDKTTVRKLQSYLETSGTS
Description: MLLT3 HTRF IC50 determination assay (H3K9cro peptide displacement). The conditions noted are these: category, Table 4. The format is binding.
Description: as §1, §2, §3, §4, §5, §6, §7

The test system of the next experiment is MV4-11 cells. Description: MV4-11 cellular proliferative assay, Assay Format B (CTG 2.0, 168 h). The format is cell-based. As to conditions: Homo sapiens, Assay format B, 168 h, read-out: IC50 (MV4-11 cellular proliferative assay). The method in brief: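 Cells seeded at 600/well in IMDM + 10% FBS, incubated overnight, then exposed 168 h (7 days) at 37 °C to 10 concentrations, 3-fold dilutions from 1 uM or 100 nM top dose (0.3% DMSO final). Viability by CTG 2.0 luminescence as % of DMSO control; curves fitted by four-parameter logistic regression.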

Experiment [2] has as its target T1, MLLT1. As to the kind of experiment: MLLT1 degradation assay in MV4-11 cells (JESS, 24 h). It is filed as cell-based. Further details: endogenous in cells; host or cells: MV4-11 (ATCC CRL-9591). As to conditions: vs DMSO control. The method in brief:
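MV4-11 cells treated at 1000, 100 and 10 nM (0.1% DMSO) for 24 h at 37° C; lysates (4 ug protein) run on JESS capillary immunoassay with MLLT1 and GAPDH antibodies. Peak areas give % degradation versus DMSO, binned A (≥75%) to D (<25%).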

Bounds are passed on as bounds.

In the case of `Cc1nn(C)c2cc(C(=O)Nc3cc4[nH]c(C5CCCN5C)cc4cn3)ccc12` (racemic) [Example 75, rac-1,3-dimethyl-N-(2-(1-methylpyrrolidin-2-yl)-1H-pyrrolo[3,2-c]pyridin-6-yl)-1H-indazole-6-carboxamide], the concentration for half-maximal inhibition (IC50) at MLLT1 [1] is no more than 100 nM; on MLLT3, 100 to 1000 nM.

For `Cc1nn(C)c2cc(C(=O)Nc3cc4[nH]c([C@@H]5CCCN5C)cc4cn3)ccc12` (single isomer, unassigned) [Example 77], the IC50 on MLLT1 [1] is 100 to 1000 nM; at MLLT3, 1000 to 10000 nM.

At MLLT1 [1], `CCN1CCCC1c1cc2cnc(NC(=O)c3ccc4c(C)nn(C)c4c3)cc2[nH]1` (single isomer, unassigned) [Example 85, N-{2-[(rel-2S)-1-ethylpyrrolidin-2-yl]-1H-pyrrolo[3,2-c]pyridin-6-yl}-1,3-dimethylindazole-6-carboxamide] gave a half-inhibitory concentration (IC50) of 1000 to 10000 nM.

In the case of `Cc1nn(CC#Cc2cccc3c2CN(C2CCC(=O)NC2=O)C3=O)c2cc(C(=O)Nc3cc4[nH]c([C@H]5CCCN5C)cc4cn3)ccc12` (stereo partly drawn) [Example 72, 1-(3-(2-(2,6-dioxopiperidin-3-yl)-1-oxoisoindolin-4-yl)prop-2-yn-1-yl)-3-methyl-N-(2-((R)-1-methylpyrrolidin-2-yl)-1H-pyrrolo[3,2-c]pyridin-6-yl)-1H-indazole-6-carboxamide], in the experiment with MV4-11 cells, the concentration for half-maximal inhibition (IC50) is less than 100 nM. In addition, on MLLT1 [2], the “MLLT1% Degradation @ 0.01 μM” value is recorded as “A (Category A: A≥75% degradation)”, the “MLLT1% Degradation @ 0.1 μM” value is reported as “A (Category A: A≥75% degradation)” and the “MLLT1% Degradation @ 1 μM” value is listed as “B (Category B: 50%≤B<75% degradation)”.

As for `Cc1nn(C2CCC(CCCC#Cc3cccc4c3CN(C3CCC(=O)NC3=O)C4=O)CC2)c2cc(C(=O)Nc3cc4[nH]c([C@H]5CCCN5C)cc4cn3)ccc12` (stereo partly drawn) [Example 74, 1-(4-(5-(2-(2,6-dioxopiperidin-3-yl)-1-oxoisoindolin-4-yl)pent-4-yn-1-yl)cyclohexyl)-3-methyl-N-(2-((R)-1-methylpyrrolidin-2-yl)-1H-pyrrolo[3,2-c]pyridin-6-yl)-1H-indazole-6-carboxamide], the IC50 in the experiment with MV4-11 cells was less than 100 nM. For the same compound, on MLLT1 [2], the “MLLT1% Degradation @ 0.01 μM” value is reported as “B (Category B: 50%≤B<75% degradation)”, the “MLLT1% Degradation @ 0.1 μM” value is “B (Category B: 50%≤B<75% degradation)” and the “MLLT1% Degradation @ 1 μM” value is recorded as “A (Category A: A≥75% degradation)”.

`Cc1nn(CC2CCN(c3ccc4c(c3)C(=O)N(C3CCC(=O)NC3=O)C4=O)CC2)c2cc(C(=O)Nc3cc4[nH]c([C@H]5CCCN5C)cc4cn3)ccc12` (stereo partly drawn) [Example 104, 1-((1-(2-(2,6-dioxopiperidin-3-yl)-1,3-dioxoisoindolin-5-yl)piperidin-4-yl)methyl)-3-methyl-N-(2-((R)-1-methylpyrrolidin-2-yl)-1H-pyrrolo[3,2-c]pyridin-6-yl)-1H-indazole-6-carboxamide]: in the experiment with MV4-11 cells, the 50% inhibitory concentration (IC50) is less than 100 nM. For the same compound, at MLLT1 [2], the “MLLT1% Degradation @ 0.01 μM” value was “B (Category B: 50%≤B<75% degradation)”, the “MLLT1% Degradation @ 0.1 μM” value is “A (Category A: A≥75% degradation)” and the “MLLT1% Degradation @ 1 μM” value was “C (Category C: 25%≤C<50% degradation)”.

For the compound `Cc1nn(CCCCCC2CCN(c3cccc4c3CN(C3CCC(=O)NC3=O)C4=O)CC2)c2cc(C(=O)Nc3cc4[nH]c([C@H]5CCCN5C)cc4cn3)ccc12` (stereo partly drawn) [Example 105, 1-(5-(1-(2-(2,6-dioxopiperidin-3-yl)-1-oxoisoindolin-4-yl)piperidin-4-yl)pentyl)-3-methyl-N-(2-((R)-1-methylpyrrolidin-2-yl)-1H-pyrrolo[3,2-c]pyridin-6-yl)-1H-indazole-6-carboxamide], the IC50 in the experiment with MV4-11 cells was less than 100 nM. For the same compound, on MLLT1 [2], the “MLLT1% Degradation @ 0.01 μM” value is recorded as “B (Category B: 50%≤B<75% degradation)”, the “MLLT1% Degradation @ 0.1 μM” value is listed as “A (Category A: A≥75% degradation)” and the “MLLT1% Degradation @ 1 μM” value was “A (Category A: A≥75% degradation)”.

As for `Cc1nn(CC2CCN(c3cccc4c3CN(C3CCC(=O)NC3=O)C4=O)CC2)c2cc(C(=O)Nc3cc4[nH]c([C@H]5CCCN5C)cc4cn3)ccc12` (stereo partly drawn) [Example 106, 1-((1-(2-(2,6-dioxopiperidin-3-yl)-1-oxoisoindolin-4-yl)piperidin-4-yl)methyl)-3-methyl-N-(2-((R)-1-methylpyrrolidin-2-yl)-1H-pyrrolo[3,2-c]pyridin-6-yl)-1H-indazole-6-carboxamide], the IC50 in the experiment with MV4-11 cells was less than 100 nM. For the same compound, on MLLT1 [2], the “MLLT1% Degradation @ 0.01 μM” value was “A (Category A: A≥75% degradation)”, the “MLLT1% Degradation @ 0.1 μM” value is “A (Category A: A≥75% degradation)” and the “MLLT1% Degradation @ 1 μM” value is on record as “A (Category A: A≥75% degradation)”.

With `Cc1nn(CCCCCC2CCN(c3ccc4c(c3)C(=O)N(C3CCC(=O)NC3=O)C4=O)CC2)c2cc(C(=O)Nc3cc4[nH]c([C@H]5CCCN5C)cc4cn3)ccc12` (stereo partly drawn) [Example 109, 1-(5-(1-(2-(2,6-dioxopiperidin-3-yl)-1,3-dioxoisoindolin-5-yl)piperidin-4-yl)pentyl)-3-methyl-N-(2-((R)-1-methylpyrrolidin-2-yl)-1H-pyrrolo[3,2-c]pyridin-6-yl)-1H-indazole-6-carboxamide], the IC50 with MV4-11 cells is less than 100 nM. At MLLT1 [2], the “MLLT1% Degradation @ 0.01 μM” value is “A (Category A: A≥75% degradation)”, the “MLLT1% Degradation @ 0.1 μM” value is “A (Category A: A≥75% degradation)” and the “MLLT1% Degradation @ 1 μM” value is given as “A (Category A: A≥75% degradation)”.

What is called IC50 is the point on the concentration scale where inhibition reaches its midpoint.
